Source: patent US8093030B2, “Thermostable viral polymerases and methods of use” (Lucigen Corporation, priority 2005, dated 2012)

What was measured:
[1] = target: polymerase 3173 (SEQ ID NO:6) double mutant D49A/F418Y, SEQ ID NO:27 (uncultured virus, UniProt R4KMS7, D72A/F441Y); experiment: Fluorescent primer extension assay with ddGTP; type: biochemical
Experimental: (§1) In separate reactions, ddGTP, ddATP, ddTTP, and ddCTP were added to the above mix in concentrations of 50, 500 and 5000 μM each. Five units of polymerase 3173 mutant D49A were added and the reactions were incubated for 30 minutes at 70° C. Extension of the primer was detected by the ABI 310 Genetic Analyzer in Gene Scan mode.
The polymerase 3173 double mutant D49A/F418Y was also tested in the fluorescent primer extension assay described above.

[2] = target: polymerase 3173 (SEQ ID NO:6) mutant D49A (uncultured virus, UniProt R4KMS7, D72A); experiment: Inhibition of 5' Rox-labeled primer extension by chain terminators (ABI 310 Genetic Analyzer); type: biochemical; settings: ddNTPs 50, 500 and 5000 μM each vs 50 μM each dNTP (up to 100-fold molar excess); 70° C., 30 minutes
Experimental: as §1

Sequence of polymerase 3173 (SEQ ID NO:6) double mutant D49A/F418Y, SEQ ID NO:27 (R4KMS7 entry or part of it D72A/F441Y): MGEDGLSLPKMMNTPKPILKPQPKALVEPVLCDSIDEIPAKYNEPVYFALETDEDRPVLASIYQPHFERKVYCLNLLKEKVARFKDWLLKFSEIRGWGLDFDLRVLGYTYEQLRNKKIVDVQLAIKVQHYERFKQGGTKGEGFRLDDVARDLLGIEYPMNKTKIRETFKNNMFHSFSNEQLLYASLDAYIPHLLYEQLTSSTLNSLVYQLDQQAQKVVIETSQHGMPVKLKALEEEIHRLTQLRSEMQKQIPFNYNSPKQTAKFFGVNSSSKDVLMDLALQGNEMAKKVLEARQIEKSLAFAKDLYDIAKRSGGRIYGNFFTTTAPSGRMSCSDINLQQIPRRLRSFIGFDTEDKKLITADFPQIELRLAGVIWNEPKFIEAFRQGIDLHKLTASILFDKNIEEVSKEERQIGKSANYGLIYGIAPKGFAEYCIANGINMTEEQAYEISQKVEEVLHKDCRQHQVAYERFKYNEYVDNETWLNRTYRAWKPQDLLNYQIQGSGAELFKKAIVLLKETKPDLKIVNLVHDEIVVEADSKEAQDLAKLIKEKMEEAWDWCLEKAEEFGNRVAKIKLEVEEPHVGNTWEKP
Sequence of polymerase 3173 (SEQ ID NO:6) mutant D49A (R4KMS7 entry or part of it D72A): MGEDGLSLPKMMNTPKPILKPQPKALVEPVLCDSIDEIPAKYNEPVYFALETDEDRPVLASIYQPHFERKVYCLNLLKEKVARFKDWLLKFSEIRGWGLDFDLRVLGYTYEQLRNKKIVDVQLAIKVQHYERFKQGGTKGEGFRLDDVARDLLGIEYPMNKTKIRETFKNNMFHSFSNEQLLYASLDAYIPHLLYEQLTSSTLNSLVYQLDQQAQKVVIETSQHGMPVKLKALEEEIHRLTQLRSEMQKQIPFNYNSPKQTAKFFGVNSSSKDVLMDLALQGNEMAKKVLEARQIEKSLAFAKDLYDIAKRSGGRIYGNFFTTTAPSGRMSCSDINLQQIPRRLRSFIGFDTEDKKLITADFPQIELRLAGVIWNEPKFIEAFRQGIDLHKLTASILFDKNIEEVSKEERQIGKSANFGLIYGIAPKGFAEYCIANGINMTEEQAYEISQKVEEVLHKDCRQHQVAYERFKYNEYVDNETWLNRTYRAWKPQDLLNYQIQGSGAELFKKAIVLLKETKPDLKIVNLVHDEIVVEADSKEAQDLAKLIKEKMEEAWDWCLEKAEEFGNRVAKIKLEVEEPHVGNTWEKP

Nc1nc2c(ncn2[C@H]2CC[C@@H](COP(=O)(O)OP(=O)(O)OP(=O)(O)O)O2)c(=O)[nH]1 [ddGTP]
inhibition of primer extension ([1]; 0.2× ratio of ddGTP:dGTP): nearly complete inhibition of primer extension, with no extension continuing beyond the fourth G residue | inhibition of primer extension ([1]; 2× ratio of ddGTP:dGTP): almost completely inhibited any extension | inhibition of primer extension [2]: no inhibition of primer extension was detected
